Measured values taken from ChEMBL document CHEMBL1155731, “Montipyridine, a new pyridinium alkaloid from the stony coral montipora species” (2001).

Experiments:
Format in all cases: functional
Settings in all cases: read-out: ED50 (the source's name)
A549 = experiment: Cytotoxicity against human A549 cells
HCT-15 = experiment: Cytotoxicity against human HCT15 cells
XF498 = experiment: Cytotoxicity against human XF498 cells
SK-MEL-2 = experiment: Cytotoxicity against human SK-MEL-2 cells
SK-OV-3 = experiment: Cytotoxicity against human SKOV3 cells

Measured: EC50

C=CCCCCCCCc1cc(OC)cc[n+]1CC(=O)[O-] [MONTIPYRIDINE]
> 30 µg/mL: all assays above
